Where two headings read alike, the source gives them in different places. In the oligonucleotide strings, read from the 5' end, every base follows the letter of its sugar. An asterisk marks phosphorothioate; unmarked linkages are phosphodiester. Other units and linkages are bracketed, terminal groups are in braces. A string of capitals states the bases alone. d = 2'-deoxy (DNA)
Assays:
Miapaca-2 cells [1] = assay: Cell growth with gemcitabine treatment after sDNA transfection, Miapaca-2; assay type: cell-based, Human; settings: 96 hours; for Fold change in numbers of viable cells normalized relative to TC: Miapaca-2, 0.1 ug sDNA
Method: (§1) Cells were fixed after 96 hours and numbers of viable cells counted by measuring the absorbance at 570 nm.
(§2) Cells were transfected with 0.1 μg of TC-sDNA, Mix-sDNA, CG-sDNA, and AT-sDNA.

Miapaca-2 cells [2] = assay: Cell viability (crystal violet) after sDNA transfection, Miapaca-2; assay type: cell-based, Human; settings: for cells dead compared to TC: versus transfection control (TC) cells; for cells dead compared to UT: Miapaca-2, 0.1 ug sDNA, versus untransfected (UT) cells; for Fold change in numbers of viable cells between TC and sDNA transfected cells (in parentheses) / Fold change in numbers of viable cells between UT and transfected cells: 96 h after transfection
Method: The absorbance was measured at 570 nm in quadruplicate. All data from control cells were combined and averaged.

AsPC-1 cells [3] = settings: for cell death: 96 h, compared to non-transfected cells; for cells dead compared to UT: AsPC-1, 0.1 ug sDNA, versus untransfected (UT) cells; for Fold change in numbers of viable cells between TC and sDNA transfected cells (in parentheses) / Fold change in numbers of viable cells between UT and transfected cells: 96 h after transfection
Method: AsPC-1 cells were grown in Roswell Park Memorial Institute medium supplemented with 10% FBS, and 1% penicillin-streptomycin.
Transfections using sDNA at concentrations of 0.1 and 0.25 μg per well were conducted with 5×10^4 and 1×10^5 Miapaca-2 and AsPC-1 cells, respectively, in 24-well plates and all data were collected in quadruplicate. Miapaca-2 and AsPC-1 cells were transfected with sDNA using Lipofectamine 2000 (Invitrogen,™ Life Technologies Corporation, Carlsbad, Calif.) according to the manufacturer's protocol.
Briefly, AsPC-1 cells grown in 10% FBS containing RPIM medium were trypsinized using a trypsin-EDTA solution commercially available from the Sigma-Aldrich, and used to seed fresh media in a 24-well plate with 10^5 cells per well.
After 48 hours, the cells were transfected with the selected sDNA using Lipofectamine 2000 (Invitrogen,™ Life Technologies Corporation, Carlsbad, Calif.) according to the manufacturer's protocol. […] The cells were then fixed with 4% paraformaldehyde in PBS for 20 minutes and stained in 0.1% crystal violet stain (Sigma-Aldrich) for 30 minutes. The cells were washed under running tap water, air dried, and extracted with 0.2% Triton™ X-100 for 30 minutes. […] The absorbance of the Triton X-100 was measured at 570 nm using a HTS microplate reader. All results were analyzed for statistical significance using a student's unpaired t-test.

AsPC-1 cells [4] = assay: Cell growth with gemcitabine treatment after sDNA transfection, AsPC-1; assay type: cell-based, Human; settings: for Fold change in numbers of viable cells normalized relative to TC: AsPC-1, 0.1 ug sDNA, 96 hours
Method: as §1, §2

AsPC-1 cells [5] = assay: as above; assay type: cell-based, Human; settings: for cells died: AsPC-1, 0.25 μg AT-sDNA
[6] = test system: HMGA1 expression levels in AsPC-1 cells; assay: Western blot of HMGA1 expression levels in AsPC-1 nuclear extracts; assay type: cell-based, Human; settings: AsPC-1, 0.5 μg sDNA in six well plates, 48 hours
Method: Cytoplasmic and nuclear protein extracts were prepared from pancreatic cancer cells using NE-PER extraction kit (Thermo Scientific, Rockford, Ill.). Protein concentrations were determined using a bicinchoninic acid assay with bovine serum albumin as a standard. Nuclear proteins that contained 25 or 15 μg total protein were separated by SDS-PAGE with a 4%-20% Criterion gradient gel (Bio-Rad Laboratories, Inc., Hercules, Calif.). The proteins were transferred to immuno-blot PVDF membrane (0.2 μm) (Bio-Rad Laboratories, Inc., Hercules, Calif.) and blocked in 5% dry milk in PBS supplemented with 0.2% Tween 20 (PBST). The PVDF membranes were then probed with 1:1000 dilution of rabbit anti-HMGA1 antibody (Santa Cruz Biotechnology Inc, Santa Cruz, Calif.) and 1:100 dilution of rabbit anti-HMGA2 antibody (Abcam plc, Cambridge, Mass.), in 3% BSA in PBST at 4° C. overnight. After three washes with PBST, the membrane was blotted with secondary antibody, ant-rabbit IgG-HRP (cell signaling) 1:5000 dilution in 1% dry milk in PBST at room temperature for 1 hour. An enhanced chemiluminescence detection (ECL, GE Healthcare Life Sciences, Piscataway, N.J.) system was used to detect target proteins. To ensure equal loading of the proteins between groups, membranes were re-probed with anti-TATA binding protein antibody (Abcam plc, Cambridge, Mass.). […] The control was nuclear extract from untreated cells. Triplicates of each sample were run on the gel and analyzed with the Alpha Imager. The relative HMGA1 densities were obtained by dividing HMGA 1 density by TBP density. […] TATA binding protein (TBP) was used as a loading control. […] HMGA1 expression levels were examined after transfection with CG-sDNA or AT-sDNA to determine if the transfection procedure affected HMGA1 expression levels. The AT-sDNA used for transfection contained an 18 adenine/thymine stretch enabling HMGA1 to bind the DNA with all three AT-hooks. As a negative control, a non-HMGA1-targeted sDNA containing an equal length of DNA but with no AT-stretches, i.e. CG-sDNA, was used. […]

Miapaca-2 cells [7] = assay: Cell growth with gemcitabine treatment after sDNA transfection, Miapaca-2; assay type: cell-based, Human; settings: for Fold change in numbers of viable cells normalized relative to TC: 96 hours

AT-sDNA: AT-rich phosphorothioate DNA, 5′-G*G*G*A*A*A*A*A*A*T*T*T*T*T*T*A*A*A*A*A*A*C*C*C-3′ (SEQ ID NO: 1), sulfur substitution at every position (DNA dG*dG*dG*dA*dA*dA*dA*dA*dA*dT*dT*dT*dT*dT*dT*dA*dA*dA*dA*dA*dA*dC*dC*dC)
cells dead / change in cell viability (Miapaca-2 cells [1]; Miapaca-2, 0.1 μg sDNA, 1 nM gemcitabine): 33.6% | cells surviving (Miapaca-2 cells [1]; Miapaca-2, 0.1 μg sDNA, 10 nM gemcitabine, normalized to 0 nM gemcitabine): 51.2% | Fold change in numbers of viable cells normalized relative to TC (Miapaca-2 cells [1]; Gemcitabine 0 nM): −1.52 fold | Fold change in numbers of viable cells normalized relative to TC (Miapaca-2 cells [1]; Gemcitabine 10 nM): −1.79 fold | Fold change in numbers of viable cells normalized relative to TC (Miapaca-2 cells [1]; Gemcitabine 30 nM): −7.07 fold | Fold change in numbers of viable cells normalized relative to TC (Miapaca-2 cells [1]; Gemcitabine 100 nM): −9.58 fold | Fold change in numbers of viable cells normalized relative to TC (Miapaca-2 cells [1]; Gemcitabine 1000 nM): −6.82 fold | cells dead compared to TC (Miapaca-2 cells [2]; Miapaca-2, 0.1 μg sDNA, 48 hrs): 17.2% | cells dead compared to UT (Miapaca-2 cells [2]; 48 hrs): 48.4% | Fold change in numbers of viable cells between TC and sDNA transfected cells (in parentheses) (Miapaca-2 cells [2]; Miapaca-2, 0.1 μg sDNA): −1.52 fold | Fold change in numbers of viable cells between UT and transfected cells (Miapaca-2 cells [2]; Miapaca-2, 0.1 μg sDNA): −2.36 fold | cells dead compared to TC (Miapaca-2 cells [2]; Miapaca-2, 0.1 μg sDNA, 96 hrs): 34.1% | cells dead compared to UT (Miapaca-2 cells [2]; 96 hrs): 58.9% | Fold change in numbers of viable cells between TC and sDNA transfected cells (in parentheses) (Miapaca-2 cells [2]; Miapaca-2, 0.25 μg sDNA): −3.68 fold | Fold change in numbers of viable cells between UT and transfected cells (Miapaca-2 cells [2]; Miapaca-2, 0.25 μg sDNA): −6.07 fold | cell death (AsPC-1 cells [3]; AsPC-1, 0.1 μg sDNA per well): 33% | cells dead compared to TC (AsPC-1 cells [3]; AsPC-1, 0.1 μg sDNA, 48 hrs, versus transfection control (TC) cells): 22.3% | cells dead compared to UT (AsPC-1 cells [3]; 48 hrs): 42.0% | Fold change in numbers of viable cells between TC and sDNA transfected cells (in parentheses) (AsPC-1 cells [3]; AsPC-1, 0.1 μg sDNA): −1.44 fold | Fold change in numbers of viable cells between UT and transfected cells (AsPC-1 cells [3]; AsPC-1, 0.1 μg sDNA): −1.57 fold | cells dead compared to TC (AsPC-1 cells [3]; AsPC-1, 0.1 μg sDNA, 96 hrs, versus transfection control (TC) cells): 30.7% | cells dead compared to UT (AsPC-1 cells [3]; 96 hrs): 36.1% | cell death (AsPC-1 cells [3]; AsPC-1, 0.25 μg sDNA per well): 44% | Fold change in numbers of viable cells between TC and sDNA transfected cells (in parentheses) (AsPC-1 cells [3]; AsPC-1, 0.25 μg sDNA): −1.65 fold | Fold change in numbers of viable cells between UT and transfected cells (AsPC-1 cells [3]; AsPC-1, 0.25 μg sDNA): −1.79 fold | cell death compared to TC (AsPC-1 cells [3]; AsPC-1, 0.25 μg sDNA, 96 hours, versus TC cells): 39.4% | cell death (AsPC-1 cells [3]; AsPC-1, 1.0 μg sDNA per well): 57% | cells dead compared to TC (AsPC-1 cells [3]; AsPC-1, 1.0 μg sDNA, 96 hours, versus TC cells): 53.6% | cells dying (AsPC-1 cells [4]; AsPC-1, 0.1 μg AT-sDNA, 100 nM gemcitabine): 29.4% | Fold change in numbers of viable cells normalized relative to TC (AsPC-1 cells [4]; Gemcitabine 0 nM): −1.44 fold | Fold change in numbers of viable cells normalized relative to TC (AsPC-1 cells [4]; Gemcitabine 1 nM): −1.58 fold | Fold change in numbers of viable cells normalized relative to TC (AsPC-1 cells [4]; Gemcitabine 10 nM): −1.71 fold | Fold change in numbers of viable cells normalized relative to TC (AsPC-1 cells [4]; Gemcitabine 30 nM): −1.86 fold | Fold change in numbers of viable cells normalized relative to TC (AsPC-1 cells [4]; Gemcitabine 100 nM): −2.04 fold | Fold change in numbers of viable cells normalized relative to TC (AsPC-1 cells [4]; Gemcitabine 1000 nM): −2.33 fold | cell death (AsPC-1 cells [5]; AsPC-1, 0.025 μg AT-sDNA, 1000 nM gemcitabine): 31% | cells dying (AsPC-1 cells [5]; AsPC-1, 0.1 μg AT-sDNA, 1 nM gemcitabine): 9.0% | cells died (AsPC-1 cells [5]; 1 nM gemcitabine): 14.9% | cells died (AsPC-1 cells [5]; 100 nM gemcitabine): 41.7% | overall drop in the number of viable cells after gemcitabine treatment (AsPC-1 cells [5]; AsPC-1, AT-sDNA transfection): 2-4 fold | change in HMGA1 expression levels after sDNA transfection [6]: no changes | Fold change in numbers of viable cells normalized relative to TC (Miapaca-2 cells [7]; Miapaca-2, 0.1 ug sDNA, Gemcitabine 1 nM): −1.38 fold | Fold change in numbers of viable cells normalized relative to TC (Miapaca-2 cells [7]; Miapaca-2, 0.25 ug sDNA, Gemcitabine 0 nM): −3.68 fold | Fold change in numbers of viable cells normalized relative to TC (Miapaca-2 cells [7]; Miapaca-2, 0.25 ug sDNA, Gemcitabine 1 nM): −4.45 fold | Fold change in numbers of viable cells normalized relative to TC (Miapaca-2 cells [7]; Miapaca-2, 0.25 ug sDNA, Gemcitabine 10 nM): −4.14 fold | Fold change in numbers of viable cells normalized relative to TC (Miapaca-2 cells [7]; Miapaca-2, 0.25 ug sDNA, Gemcitabine 30 nM): −8.32 fold | Fold change in numbers of viable cells normalized relative to TC (Miapaca-2 cells [7]; Miapaca-2, 0.25 ug sDNA, Gemcitabine 100 nM): −11.81 fold | Fold change in numbers of viable cells normalized relative to TC (Miapaca-2 cells [7]; Miapaca-2, 0.25 ug sDNA, Gemcitabine 1000 nM): −11.31 fold | overall drop in the number of viable cells (Miapaca-2 cells [7]; Miapaca-2, either 0.1 or 0.25 μg AT-sDNA, 100 nm or greater gemcitabine): ~10 fold

From patent US9492470B2, “Use of HMGA-targeted phosphorothioate DNA aptamers to suppress carcinogenic activity and increase sensitivity to chemotherapy agents in human cancer cells” (MIAMI UNIVERSITY, priority 2012, dated 2016)
